Laboratory results as given in patent US20190125790A1, “USE OF HYPOCHLOROUS ACID AS A TOPICAL ANTIMICROBIAL” (BIIOSMART TECHNOLOGIES LLC, priority 2016, published 2019).

Experiment: Controlled randomized single blind clinical trial in surgical open wounds
Format: in vivo, human
Procedure: The biocompatibility of the 0.046% HOCl concentration aqueous solution was tested in a three way controlled and randomized single blind clinical trial. Patients were randomized into three groups (60 patients per group). The antiseptic efficacy and biocompatibility of the test solution vs. povidone-iodine vs. chlorhexidine (Chlorhexidine Gluconate—CHG) in surgical—clean and clean contaminated—open wounds was evaluated in 180 patients admitted to the surgical facilities of Erasmo Meoz Hospital in Cucuta, Colombia.

For `[H]/N=C(\N/C(=N/[H])NCCCCCCNC(=N)NC(=N)Nc1ccc(Cl)cc1)Nc1ccc(Cl)cc1` [chlorhexidine, Chlorhexidine Gluconate], the infected patients (after five days follow-up, 60 patients per group) was “two” and the “wound appearance (biocompatibility)” value (human, in vivo) was “dried edges and no promising color in wound bed”.
